Among the data in patent US11180483B2, “Substituted reverse pyrimidine Bmi-1 inhibitors” (PTC Therapeutics, Inc., priority 2012, dated 2021) are EC50 values, retold here.

The structures appear in SMILES notation. pEC50: −log10 of the molar value.

This assay deals with Bmi-1. The assay can be described thus: Sandwich ELISA Assay (Bmi-1 ELISA) in HT-1080 cells. The assay is classed as cell-based. The essentials:
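HT-1080 cells exposed to compound in 0.5% final DMSO for 40-48 h at 37 °C, then lysed. Bmi-1 was quantified by sandwich ELISA: mouse monoclonal capture, rabbit anti-Bmi-1 detection, HRP anti-rabbit and TMB. Read at OD450 (OD570 reference) against a recombinant GST-Bmi-1 standard curve (0-8000 pg/mL).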
A general note: An ELISA detects its analyte on a solid surface through an enzyme-linked reagent.
Consider `CSc1ccc(Nc2cc(N)nc(-n3c(C)nc4ccccc43)n2)cc1` [Cpd 146, 2-(2-methyl-1H-benzimidazol-1-yl)-N-[4-(methylsulfanyl]phenyl]pyrimidine-4,6-diamine], for which the pEC50 was 7.00 to 8.00.

`COc1ccc(Nc2nc(-n3c(C)nc4ccccc43)nc(N)c2F)cc1` [Cpd 200, 5-fluoro-N-(4-methoxyphenyl)-2-(2-methyl-1H-benzimidazol-1-yl)pyrimidine-4,6-diamine]: the negative logarithm of the EC50 (pEC50) was 8.00 to 9.00.

For the molecule `CCc1nc2ccccc2n1-c1nc(N)c(F)c(Nc2ccc(C)cc2)n1` [Cpd 270, 2-(2-ethyl-1H-benzimidazol-1-yl)-5-fluoro-N-(4-methylphenyl)pyrimidine-4,6-diamine], the negative-log EC50 (pEC50) is 8.00 to 9.00.

Take `Cc1ccc(Nc2ccnc(-c3c(C(F)(F)F)nc4cnccn34)n2)cc1` [Cpd 62, N-(4-methylphenyl)-2-[2-(trifluoromethyl)imidazo[1,2-a]pyrazin-3-yl]pyrimidin-4-amine]: the pEC50 was 7.00 to 8.00.

`Cc1ccc(Nc2ccnc(-c3c(-c4ccccc4)nc4ccc(F)cn34)n2)cc1` [Cpd 27, 2-(6-fluoro-2-phenylimidazo[1,2-a]pyridin-3-yl)-N-(4-methylphenyl)pyrimidin-4-amine] had a pEC50 of 5.52 to 7.00.

Molecule `Cc1nc2ccccc2n1-c1nc(N)c(F)c(Nc2ccc(OC(F)(F)F)cc2)n1` [Cpd 204, 5-fluoro-2-(2-methyl-1H-benzimidazol-1-yl)-N-[4-(trifluoromethoxy)phenyl]pyrimidine-4,6-diamine] had a negative-log EC50 (pEC50) of 7.00 to 8.00.

`Cc1nc2ccc(Cl)cc2n1-c1nc(N)cc(Nc2ccc(C(F)(F)F)cc2)n1` [Cpd 93, 2-(6-chloro-2-methyl-1H-benzimidazol-1-yl)-N-[4-(trifluoromethyl)phenyl]pyrimidine-4,6-diamine] showed a negative-log EC50 (pEC50) of 7.00 to 8.00.

`Cc1nc2ccccc2n1-c1nccc(Nc2ccc(OC(F)F)cc2)n1` [Cpd 61, N-[4-(difluoromethoxy)phenyl]-2-(2-methyl-1H-benzimidazol-1-yl)pyrimidin-4-amine]: the pEC50 was 5.52 to 7.00.

`Nc1cc(Nc2ccc(C(F)(F)F)cc2)nc(-c2c(CO)nc3ccc(F)cn23)n1` [Cpd 84, [3-(4-amino-6-{[4-(trifluoromethyl)phenyl]amino}pyrimidin-2-yl)-6-fluoroimidazo[1,2-a]pyridin-2-yl]methanol] had a pEC50 of 5.52 to 7.00.

Take `Cc1nc2ncc(Cl)cc2n1-c1nc(N)c(F)c(Nc2ccc(OC(F)F)c(F)c2)n1` [Cpd 116, 2-(6-chloro-2-methyl-1H-imidazo[4,5-b]pyridin-1-yl)-N-[4-(difluoromethoxy)-3-fluorophenyl]-5-fluoropyrimidine-4,6-diamine]: the pEC50 is 7.00 to 8.00.

For the molecule `Cc1nc2ccccn2c1-c1nccc(Nc2ccc3c(c2)OCCO3)n1` [Cpd 2, N-(2,3-dihydro-1,4-benzodioxin-6-yl)-2-(2-methylimidazo[1,2-a]pyridin-3-yl)pyrimidin-4-amine], the pEC50 was 5.52 to 7.00.

`Cc1nc2cc(Cl)ccc2n1-c1nc(N)c(F)c(Nc2ccc(OC(F)F)cc2)n1` [Cpd 159, 2-(5-chloro-2-methyl-1H-benzimidazol-1-yl)-N-[4-(difluoromethoxy)phenyl]-5-fluoropyrimidine-4,6-diamine] had a pEC50 of 5.52 to 7.00.

Regarding `COc1ccc(Nc2nc(-n3c(C)nc4cc(F)ccc43)nc(N)c2F)cc1` [Cpd 282, 5-fluoro-2-(5-fluoro-2-methyl-1H-benzimidazol-1-yl)-N-(4-methoxyphenyl)pyrimidine-4,6-diamine], the pEC50 was 8.00 to 9.00.

`Cc1nc2ccc(Br)cc2n1-c1nc(N)cc(Nc2ccc(C(F)(F)F)cc2)n1` [Cpd 85, 2-(6-bromo-2-methyl-1H-benzimidazol-1-yl)-N-[4-(trifluoromethyl)phenyl]pyrimidine-4,6-diamine]: the pEC50 was 5.52 to 7.00.

In the case of `FC(F)(F)c1nc2ccccn2c1-c1nccc(Nc2ccc(Cl)cc2)n1` [Cpd 8, N-(4-chlorophenyl)-2-[2-(trifluoromethyl)imidazo[1,2-a]pyridin-3-yl]pyrimidin-4-amine], the negative logarithm of the EC50 (pEC50) was 5.52 to 7.00.

With `Cc1nc2cc(F)c(F)cc2n1-c1nc(N)cc(Nc2ccc(C(F)(F)F)c(F)c2)n1` [Cpd 74, 2-(5,6-difluoro-2-methyl-1H-benzimidazol-1-yl)-N-[3-fluoro-4-(trifluoromethyl)phenyl]pyrimidine-4,6-diamine], the pEC50 is 5.52 to 7.00.

Consider `Cc1nc2ccccc2n1-c1nc(N)cc(Nc2ccc(OC(F)F)c(F)c2)n1` [Cpd 235, N-[4-(difluoromethoxy)-3-fluorophenyl]-2-(2-methyl-1H-benzimidazol-1-yl)pyrimidine-4,6-diamine], for which the pEC50 is 7.00 to 8.00.

The molecule `COc1ccc(Nc2nc(-n3c(C)nc4ccc(OC)cc43)nc(N)c2F)cc1` [Cpd 249, 5-fluoro-2-(6-methoxy-2-methyl-1H-benzimidazol-1-yl)-N-(4-methoxyphenyl)pyrimidine-4,6-diamine] had a pEC50 of 7.00 to 8.00.

On to `Nc1nc(-n2c(C3CC3)nc3ncc(F)cc32)nc(Nc2ccc(OC(F)F)cc2)c1F` [Cpd 155, 2-(2-cyclopropyl-6-fluoro-1H-imidazo[4,5-b]pyridin-1-yl)-N-[4-(difluoromethoxy)phenyl]-5-fluoropyrimidine-4,6-diamine], for which the negative logarithm of the EC50 (pEC50) is 7.00 to 8.00.

For `Cc1nc2ncccc2n1-c1nc(N)c(F)c(Nc2ccc(C(F)(F)F)cc2)n1` [Cpd 137, 5-fluoro-2-(2-methyl-1H-imidazo[4,5-b]pyridin-1-yl)-N-[4-(trifluoromethyl]phenyl]pyrimidine-4,6-diamine], the pEC50 was 7.00 to 8.00.

The molecule `COc1ccc2nc(C(F)(F)F)c(-c3nccc(Nc4ccc(OC(F)(F)F)cc4)n3)n2c1` [Cpd 49, 2-[6-methoxy-2-(trifluoromethyl)imidazo[1,2-a]pyridin-3-yl]-N-[4-(trifluoromethoxy)phenyl]pyrimidin-4-amine] gave a pEC50 of 5.52 to 7.00.

Regarding `COCc1nc2ccccc2n1-c1nc(N)c(F)c(Nc2ccc(Cl)cc2)n1` [Cpd 219, N-(4-chlorophenyl)-5-fluoro-2-[2-(methoxymethyl)-1H-benzimidazol-1-yl]pyrimidine-4,6-diamine], the pEC50 is 5.52 to 7.00.

Molecule `FC(F)(F)c1nc2cnccn2c1-c1nccc(Nc2ccc(Cl)cc2)n1` [Cpd 47, N-(4-chlorophenyl)-2-[2-(trifluoromethyl)imidazo[1,2-a]pyrazin-3-yl]pyrimidin-4-amine] gave a negative logarithm of the EC50 (pEC50) of 5.52 to 7.00.

Molecule `Cc1nc2ccccc2n1-c1nc(N)c(F)c(Nc2ccc(C#N)cc2)n1` [Cpd 202, 4-{[6-amino-5-fluoro-2-(2-methyl-1H-benzimidazol-1-yl)pyrimidin-4-yl]amino}benzonitrile] had a pEC50 of 5.52 to 7.00.

On to `COC(=O)c1ccc(Nc2nc(-n3c(C)nc4ccc(F)cc43)nc(N)c2F)cc1` [Cpd 193, methyl 4-{[6-amino-5-fluoro-2-(6-fluoro-2-methyl-1H-benzimidazol-1-yl)pyrimidin-4-yl]amino}benzoate], for which the pEC50 was 7.00 to 8.00.

For `COc1ccc(Nc2nc(-n3c(C)nc4cc([N+](=O)[O-])ccc43)nc(N)c2F)cc1` [Cpd 255, 5-fluoro-N-(4-methoxyphenyl)-2-(2-methyl-5-nitro-1H-benzimidazol-1-yl)pyrimidine-4,6-diamine], the pEC50 is 5.52 to 7.00.

On to `Cc1ccc(Nc2ccnc(-c3c(C(F)(F)F)nc4ccccn34)n2)cc1Cl` [Cpd 36, N-(3-chloro-4-methylphenyl)-2-[2-(trifluoromethyl)imidazo[1,2-a]pyridin-3-yl]pyrimidin-4-amine], for which the pEC50 is 7.00 to 8.00.

In turn, `Cc1ccc(Nc2nc(-c3c(C(F)(F)F)nc4ccccn34)ncc2F)cc1` [Cpd 43, 5-fluoro-N-(4-methylphenyl)-2-[2-(trifluoromethyl)imidazo[1,2-a]pyridin-3-yl]pyrimidin-4-amine] had a negative logarithm of the EC50 (pEC50) of 7.00 to 8.00.

`COc1ccc(Nc2nc(-n3c(C)nc4ccc(F)cc43)nc(N)c2F)cc1` [Cpd 179, 5-fluoro-2-(6-fluoro-2-methyl-1H-benzimidazol-1-yl)-N-(4-methoxyphenyl)pyrimidine-4,6-diamine]: the pEC50 was 8.00 to 9.00.

In the case of `COc1ccc(Nc2ccnc(-c3c(C(F)(F)F)nc4ccc(OC)cn34)n2)cc1` [Cpd 50, N-(4-methoxyphenyl)-2-[6-methoxy-2-(trifluoromethyl)imidazo[1,2-a]pyridin-3-yl]pyrimidin-4-amine], the pEC50 is 7.00 to 8.00.

The molecule `COc1cccc(Nc2nc(-n3c(C)nc4ccc(F)cc43)nc(N)c2F)c1` [Cpd 189, 5-fluoro-2-(6-fluoro-2-methyl-1H-benzimidazol-1-yl)-N-(3-methoxyphenyl)pyrimidine-4,6-diamine] gave a pEC50 of 5.52 to 7.00.

The molecule `Cc1ccc(Nc2ccnc(-c3c(C(F)(F)F)nc4ccccn34)n2)cc1` [Cpd 9, N-(4-methylphenyl)-2-[2-(trifluoromethyl)imidazo[1,2-a]pyridin-3-yl]pyrimidin-4-amine] showed a pEC50 of 8.00 to 9.00.

`Cc1nc2ccccc2n1-c1nc(N)cc(Nc2ccc(Br)cc2)n1` [Cpd 212, N-(4-bromophenyl)-2-(2-methyl-1H-benzimidazol-1-yl)pyrimidine-4,6-diamine] gave a pEC50 of 7.00 to 8.00.

`FC(F)(F)c1ccc(Nc2ccnc(-c3c(C(F)(F)F)nc4ccc(Br)cn34)n2)cc1` [Cpd 32, 2-[6-bromo-2-(trifluoromethyl)imidazo[1,2-a]pyridin-3-yl]-N-[4-(trifluoromethyl)phenyl]pyrimidin-4-amine] had a pEC50 of 5.52 to 7.00.

The molecule `CCc1nc2ccccc2n1-c1nc(N)c(F)c(Nc2ccc(OC(F)F)cc2)n1` [Cpd 123, N-[4-(difluoromethoxy)phenyl]-2-(2-ethyl-1H-benzimidazol-1-yl)-5-fluoropyrimidine-4,6-diamine] had a pEC50 of 8.00 to 9.00.

Molecule `COc1ccc(Nc2nc(-n3c(C)nc4cc(F)c(F)cc43)nc(N)c2F)cc1` [Cpd 214, 2-(5,6-difluoro-2-methyl-1H-benzimidazol-1-yl)-5-fluoro-N-(4-methoxyphenyl)pyrimidine-4,6-diamine] had a pEC50 of 7.00 to 8.00.

On to `Cc1nn2ccccc2c1-c1nc(N)c(F)c(Nc2ccc(OC(F)F)cc2)n1` [Cpd 173, N-[4-(difluoromethoxy)phenyl]-5-fluoro-2-(2-methylpyrazolo[1,5-a]pyridin-3-yl)pyrimidine-4,6-diamine], for which the pEC50 is 5.52 to 7.00.

Broadly, the pEC50 is the EC50 on a negative log10 scale, so that one unit is a factor of ten. High values mean a low EC50, low ones a high EC50.
